Assay results from patent US20010042341A1, “Vase-added compositions for controlling plant and flower moisture transpiration rates” (priority 2000, published 2001).

Tested on: microorganisms
Details: display water (vase water) of cut flowers; prior art antimicrobial

## O=C(O)CC(O)(CC(=O)O)C(=O)O.Oc1cccc2cccnc12 [8-hydroxy quinoline citrate]
  growth of microorganisms: enhance the growth of microorganisms after an initial diminution of their level
